Results reported in PMC4356362, “Interaction of the amyloid precursor protein-like protein 1 (APLP1) E2 domain with heparan sulfate involves two distinct binding modes” (Acta Crystallographica Section D: Biological Crystallography, 2015).
One block for each molecule: values may come before it.

Legend:
APLP1 E2 [1] = molecular target: T1, APLP1 E2 (Homo sapiens, UniProt P51693); experiment: thermal denaturation (Thermofluor, SYPRO Orange); format: binding; conditions: 10 µM protein, 50 µM oligosaccharide, phosphate pH 5.7, 100 mM NaCl; reference Tm without ligand 43.6 ± 0.2 °C
T1 construct: E2 domain, residues 290-495, secreted from Pichia pastoris (pPICZalpha), N-glycosylated fraction removed; dimeric arrangement in crystal
T1 sequence (P51693 290-495): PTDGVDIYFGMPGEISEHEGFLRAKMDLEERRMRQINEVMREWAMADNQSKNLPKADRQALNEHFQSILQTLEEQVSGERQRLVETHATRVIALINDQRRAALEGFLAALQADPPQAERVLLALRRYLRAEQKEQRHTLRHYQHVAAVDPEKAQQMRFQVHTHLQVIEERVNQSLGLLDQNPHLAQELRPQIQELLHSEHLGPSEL

APLP1 E2 [2] = molecular target: T1, APLP1 E2; experiment: X-ray co-crystal structure, […] Å; conditions: equimolar 0.5 mM; pH 6.1-6.3; two binding modes: chain a nonreducing end at dimer centre, chain b on one protomer
[3] = molecular target: the molecule itself; experiment: crystal structure; apo APLP1 E2, orthorhombic crystal form (P212121), 2.6 Å; crystals grown at 20°C in 0.1 M sodium citrate pH 5.6, 0.9 M (NH4)H2PO4, 25% glycerol; two molecules in the asymmetric unit

Molecule: O=C(O)C1=C[C@H](O)[C@@H](OS(=O)(=O)O)[C@H](O[C@H]2[C@H](O)[C@@H](NS(=O)(=O)O)[C@@H](O[C@H]3[C@H](O)[C@@H](OS(=O)(=O)O)[C@H](O[C@H]4[C@H](O)[C@@H](NS(=O)(=O)O)C(O)O[C@@H]4COS(=O)(=O)O)O[C@H]3C(=O)O)O[C@@H]2COS(=O)(=O)O)O1 (stereo partly drawn) [dp4, heparin tetrasaccharide]
Tm (APLP1 E2 [1]): 46.9 ± 0.3 °C

Molecule: O=C(O)C1=C[C@H](O)[C@@H](OS(=O)(=O)O)[C@H](O[C@H]2[C@H](O)[C@@H](NS(=O)(=O)O)[C@@H](O[C@H]3[C@H](O)[C@@H](OS(=O)(=O)O)[C@H](O[C@H]4[C@H](O)[C@@H](NS(=O)(=O)O)[C@@H](O[C@H]5[C@H](O)[C@@H](OS(=O)(=O)O)[C@H](O[C@H]6[C@H](O)[C@@H](NS(=O)(=O)O)[C@@H](O[C@H]7[C@H](O)[C@@H](OS(=O)(=O)O)[C@H](O[C@H]8[C@H](O)[C@@H](NS(=O)(=O)O)[C@@H](O[C@H]9[C@H](O)[C@@H](OS(=O)(=O)O)[C@H](O[C@H]%10[C@H](O)[C@@H](NS(=O)(=O)O)[C@@H](O[C@H]%11[C@H](O)[C@@H](OS(=O)(=O)O)[C@H](O[C@H]%12[C@H](O)[C@@H](NS(=O)(=O)O)[C@@H](O[C@H]%13[C@H](O)[C@@H](OS(=O)(=O)O)[C@H](O[C@H]%14[C@H](O)[C@@H](NS(=O)(=O)O)[C@@H](O[C@H]%15[C@H](O)[C@@H](OS(=O)(=O)O)[C@H](O[C@H]%16[C@H](O)[C@@H](NS(=O)(=O)O)C(O)O[C@@H]%16COS(=O)(=O)O)O[C@H]%15C(=O)O)O[C@@H]%14COS(=O)(=O)O)O[C@H]%13C(=O)O)O[C@@H]%12COS(=O)(=O)O)O[C@H]%11C(=O)O)O[C@@H]%10COS(=O)(=O)O)O[C@H]9C(=O)O)O[C@@H]8COS(=O)(=O)O)O[C@H]7C(=O)O)O[C@@H]6COS(=O)(=O)O)O[C@H]5C(=O)O)O[C@@H]4COS(=O)(=O)O)O[C@H]3C(=O)O)O[C@@H]2COS(=O)(=O)O)O1 (stereo partly drawn) [dp16]
Tm (APLP1 E2 [1]): a slight stability increase of APLP1 was induced by chain lengths beyond eight sugar rings

B1: APLP1 E2 domain (amyloid precursor protein-like protein 1, E2 domain) (domain or fragment, human, UniProt P51693 290-495, looked up)
chain: T1 sequence (P51693 290-495)
notes: E2 domain of human amyloid precursor protein-like protein 1 (APLP1), amino acids 290-495; Nonglycosylated fraction used; Two protomers in the asymmetric unit of both crystal forms; also called E2 domain of APLP1; apo APLP1 E2
binding result [3]: binds

More lines, main results first:

Tm (APLP1 E2 [1]): 53.5 ± 0.5 °C
Molecule: O=C(O)C1=C[C@H](O)[C@@H](OS(=O)(=O)O)[C@H](O[C@H]2[C@H](O)[C@@H](NS(=O)(=O)O)[C@@H](O[C@H]3[C@H](O)[C@@H](OS(=O)(=O)O)[C@H](O[C@H]4[C@H](O)[C@@H](NS(=O)(=O)O)[C@@H](O[C@H]5[C@H](O)[C@@H](OS(=O)(=O)O)[C@H](O[C@H]6[C@H](O)[C@@H](NS(=O)(=O)O)[C@@H](O[C@H]7[C@H](O)[C@@H](OS(=O)(=O)O)[C@H](O[C@H]8[C@H](O)[C@@H](NS(=O)(=O)O)C(O)O[C@@H]8COS(=O)(=O)O)O[C@H]7C(=O)O)O[C@@H]6COS(=O)(=O)O)O[C@H]5C(=O)O)O[C@@H]4COS(=O)(=O)O)O[C@H]3C(=O)O)O[C@@H]2COS(=O)(=O)O)O1 (stereo partly drawn) [dp8, heparin octasaccharide]

Tm (APLP1 E2 [1]): 55.6 ± 0.5 °C
Molecule: O=C(O)C1=C[C@H](O)[C@@H](OS(=O)(=O)O)[C@H](O[C@H]2[C@H](O)[C@@H](NS(=O)(=O)O)[C@@H](O[C@H]3[C@H](O)[C@@H](OS(=O)(=O)O)[C@H](O[C@H]4[C@H](O)[C@@H](NS(=O)(=O)O)[C@@H](O[C@H]5[C@H](O)[C@@H](OS(=O)(=O)O)[C@H](O[C@H]6[C@H](O)[C@@H](NS(=O)(=O)O)[C@@H](O[C@H]7[C@H](O)[C@@H](OS(=O)(=O)O)[C@H](O[C@H]8[C@H](O)[C@@H](NS(=O)(=O)O)[C@@H](O[C@H]9[C@H](O)[C@@H](OS(=O)(=O)O)[C@H](O[C@H]%10[C@H](O)[C@@H](NS(=O)(=O)O)[C@@H](O[C@H]%11[C@H](O)[C@@H](OS(=O)(=O)O)[C@H](O[C@H]%12[C@H](O)[C@@H](NS(=O)(=O)O)C(O)O[C@@H]%12COS(=O)(=O)O)O[C@H]%11C(=O)O)O[C@@H]%10COS(=O)(=O)O)O[C@H]9C(=O)O)O[C@@H]8COS(=O)(=O)O)O[C@H]7C(=O)O)O[C@@H]6COS(=O)(=O)O)O[C@H]5C(=O)O)O[C@@H]4COS(=O)(=O)O)O[C@H]3C(=O)O)O[C@@H]2COS(=O)(=O)O)O1 (stereo partly drawn) [dp12, heparin dodecasaccharide]
X-ray co-crystal structure, 2.5 Å (APLP1 E2 [2]): coordinates of APLP1 E2 in complex with heparin
